Patent publication US11744246B2, “Preparation of mammalian oocyte for fertilization via a soluble human PH20 hyaluronidase polypeptide” (SYNGENTA PARTICIPATIONS AG, priority 2017, dated 2023)

Columns and labels:
Assay type in all cases: cell-based
[1] = tested on: Botryotinia fuckeliana (Botrytis cinerea); assay: Botryotinia fuckeliana (Botrytis cinerea)/Liquid Culture (Gray Mould); conditions: 72 h, liquid culture, growth inhibition photometrically 3-4 days after application, compared to untreated control
[2] = tested on: Glomerella lagenarium (Colletotrichum lagenarium); assay: Glomerella Lagenarium (Colletotrichum Lagenarium)/Liquid Culture (Anthracnose); conditions: Colletotrichum orbiculare, liquid culture, growth inhibition photometrically 3-4 days after application, compared to untreated control
Fusarium culmorum = assay: microbe, parasite or virus in culture; conditions: 72 h, read-out: control of Fusarium culmorum
[3] = tested on: Monographella nivalis (Microdochium nivale); assay: Monographella nivalis (Microdochium nivale)/Liquid Culture (Foot Rot Cereals); conditions: 96 h, liquid culture, growth inhibition photometrically 4-5 days after application, compared to untreated control
[4] = tested on: Magnaporthe grisea (Pyricularia oryzae); assay: microbe, parasite or virus in culture; conditions: read-out: control of Magnaporthe grisea

Measured: inhibition of growth at 20 ppm

CC(COc1ccccc1F)(CC(F)(F)F)C(=O)Nc1cnc2c(F)cccc2c1 (stereo not shown) [E.01, 4,4,4-trifluoro-2-[(2-fluorophenoxy)methyl]-N-(8-fluoro-3-quinolyl)-2-methyl-butanamide]
≥ 80%: all assays above

CC(COc1cccc(F)c1)(CC(F)(F)F)C(=O)Nc1cnc2c(F)cccc2c1 (stereo not shown) [E.02, 4,4,4-trifluoro-2-[(3-fluorophenoxy)methyl]-N-(8-fluoro-3-quinolyl)-2-methyl-butanamide]
≥ 80%: all assays above

CC(COc1ccc(F)cc1)(CC(F)(F)F)C(=O)Nc1cnc2c(F)cccc2c1 (stereo not shown) [E.03, 4,4,4-trifluoro-2-[(4-fluorophenoxy)methyl]-N-(8-fluoro-3-quinolyl)-2-methyl-butanamide]
≥ 80%: all assays above

CC(C)(C)COCC(C)(CC(F)(F)F)C(=O)Nc1cnc2c(F)cccc2c1 (stereo not shown) [E.04, 2-(2,2-dimethylpropoxymethyl)-4,4,4-trifluoro-N-(8-fluoro-3-quinolyl)-2-methyl-butanamide]
≥ 80%: all assays above

CC(COc1ccc(Cl)cc1)(CC(F)(F)F)C(=O)Nc1cnc2c(F)cccc2c1 (stereo not shown) [E.05, 2-[(4-chlorophenoxy)methyl]-4,4,4-trifluoro-N-(8-fluoro-3-quinolyl)-2-methyl-butanamide]
≥ 80%: all assays above

CC1(OCC(C)(CC(F)(F)F)C(=O)Nc2cnc3c(F)cccc3c2)CCCC1 (stereo not shown) [E.06, 4,4,4-trifluoro-N-(8-fluoro-3-quinolyl)-2-methyl-2-[(1-methylcyclopentoxy)meth-yl]butanamide]
≥ 80%: all assays above

CC(COC1CCC1)(CC(F)(F)F)C(=O)Nc1cnc2c(F)cccc2c1 (stereo not shown) [E.07, 2-(cyclobutoxymethyl)-4,4,4-trifluoro-N-(8-fluoro-3-quinolyl)-2-methyl-butanamide]
≥ 80%: all assays above

CC(COC1CCCCC1)(CC(F)(F)F)C(=O)Nc1cnc2c(F)cccc2c1 (stereo not shown) [E.08, 2-(cyclohexoxymethyl)-4,4,4-trifluoro-N-(8-fluoro-3-quinolyl)-2-methyl-butanamide]
≥ 80%: all assays above
